Results on eleven molecules are retold here after ChEMBL document CHEMBL1201862, “PubChem BioAssay data set” (2004).

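A five-concentration, 48-hour dose response in 96-well plates underlies each endpoint, interpolated linearly between surrounding concentrations. GI50 = concentration required for 50% inhibition of growth.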 Active and inactive are the calls of the source. No stated cut-off is given here; in the data, active = GI50 up to about 1.1 µM and inactive = higher. A value given as a limit tells only on which side of the number the result lay.

Among the test systems are BT-549; COLO 205; DU-145; HCT-15; HOP-62; MCF7; MDA-MB-231; NCI-H522; NCI/ADR-RES; SF-539; SK-MEL-28; SR; SW-620; TK-10.
What all share (experiment): NCI-60 cell line screen, 48 h

`CCCSc1cc(Cl)c(C)cc1S(=O)(=O)n1ccnc1OCCCN(C)C`: the GI50 with BT-549 was > 100 µM (inactive); in the assay on COLO 205, > 100 µM (inactive); in the assay on DU-145, > 100 µM (inactive); in the assay with HCT-15, more than 100 µM; with HOP-62, > 100 µM (inactive); in the assay with MCF7 it was > 100 µM (inactive). Further, the GI50 with MDA-MB-231, in the assay with NCI-H522, in the assay on NCI/ADR-RES, with SF-539, in the assay on SK-MEL-28 and with SR was > 100 µM (inactive) in each case. Besides, the GI50 in the assay on SW-620 and in the assay on TK-10 was > 100 µM (inactive) in each case.

For the molecule `O=C(NNC(=O)c1ccncc1)c1ccncc1`, the GI50 in the assay with BT-549 is > 100 µM (inactive); with COLO 205, > 100 µM (inactive); in the assay with DU-145, > 100 µM (inactive); with HCT-15, more than 100 µM; in the assay on HOP-62, > 100 µM (inactive); in the assay on MCF7, > 100 µM (inactive). The GI50 in the assay on MDA-MB-231, in the assay with NCI-H522, with NCI/ADR-RES, with SK-MEL-28, in the assay on SR and in the assay with SW-620 was > 100 µM (inactive) in each case. In addition, in the assay with TK-10, the GI50 was > 100 µM (inactive).

Consider `CC(C)C1C(=O)N(c2c(F)c(F)c(F)c(F)c2F)C(=S)N1CC[S+]([O-])c1ccccc1` (stereo not drawn), for which the GI50 with BT-549 is 15.9 µM (inactive); in the assay on COLO 205, 15.5 µM (inactive); in the assay on DU-145, 20.7 µM (inactive); with HCT-15, 16.7 µM; in the assay on HOP-62 it was 23.9 µM (inactive); with MCF7 it was 16.6 µM (inactive). In addition, the GI50 with MDA-MB-231 was 16 µM (inactive); in the assay on NCI-H522 it was 6.49 µM (inactive); in the assay with NCI/ADR-RES it was 20 µM (inactive); in the assay on SF-539, 19.7 µM (inactive); with SK-MEL-28 it was 16.9 µM (inactive); in the assay on SR it was 6.22 µM (inactive). For the same molecule, the GI50 in the assay on SW-620 is 18.3 µM (inactive); in the assay with TK-10 it was 26.9 µM (inactive).

Turning to `Cc1ccc(S(=O)(=O)NC(CO)C(=O)O)cc1` (stereo not drawn), the GI50 with BT-549 is > 100 µM (inactive); in the assay with COLO 205, > 100 µM (inactive); in the assay with DU-145 it was > 100 µM (inactive); in the assay on HCT-15, more than 100 µM; with HOP-62, > 100 µM (inactive); with MCF7 it was > 100 µM (inactive). The GI50 in the assay with MDA-MB-231, in the assay on NCI-H522, with NCI/ADR-RES, with SF-539, with SK-MEL-28 and with SR was > 100 µM (inactive) in each case. For the same molecule, the GI50 in the assay on SW-620 and in the assay on TK-10 was > 100 µM (inactive) in each case.

As to `Nc1nc(Cl)cc(NC2(CO)CCC2)n1`, the GI50 in the assay on BT-549 was > 100 µM (inactive); with COLO 205, > 100 µM (inactive); in the assay with DU-145 it was > 100 µM (inactive); with HCT-15 it was more than 100 µM; in the assay on HOP-62, > 100 µM (inactive); with MCF7 it was > 100 µM (inactive). The GI50 in the assay on MDA-MB-231, in the assay on NCI-H522, with NCI/ADR-RES, with SF-539, in the assay on SK-MEL-28 and in the assay on SR was > 100 µM (inactive) each time. Also, the GI50 in the assay on SW-620 and in the assay with TK-10 was > 100 µM (inactive) each time.

Turning to `COC(=O)c1cc(/C=C/C(=O)Cc2ccccc2)cn1S(=O)(=O)c1ccccc1`, the GI50 was > 100 µM (inactive) in the assay with BT-549; > 100 µM (inactive) with COLO 205; > 100 µM (inactive) in the assay with DU-145; 7.38 µM with HCT-15; > 100 µM (inactive) in the assay on HOP-62; > 100 µM (inactive) with MCF7. Also, the GI50 in the assay on MDA-MB-231, in the assay on NCI-H522, in the assay on NCI/ADR-RES, in the assay on SF-539, in the assay on SR and with TK-10 was > 100 µM (inactive) in each case.

As for `CSc1nc(=O)n(CCC#N)nc1SC`, the GI50 is 23.5 µM (inactive) in the assay on BT-549; 19.5 µM (inactive) in the assay on COLO 205; 51.8 µM (inactive) in the assay on DU-145; 21.9 µM in the assay on HCT-15; > 100 µM (inactive) with HOP-62; 2.72 µM (inactive) in the assay on MCF7. In addition, the GI50 is 19.2 µM (inactive) in the assay with MDA-MB-231; 25.6 µM (inactive) with NCI-H522; > 100 µM (inactive) with NCI/ADR-RES; > 100 µM (inactive) in the assay with SF-539; 14 µM (inactive) with SK-MEL-28; 32.8 µM (inactive) in the assay with SR. Also, the GI50 was 21 µM (inactive) in the assay with SW-620 and 40.2 µM (inactive) in the assay on TK-10.

For `COc1c(/C=C/C=O)cc2c(c1OC)OCO2`, the GI50 in the assay with BT-549 is 47.3 µM (inactive); with COLO 205, > 100 µM (inactive); in the assay with DU-145 it was 28.4 µM (inactive); in the assay on HCT-15, 15.3 µM; in the assay with HOP-62, 25.5 µM (inactive); in the assay with MCF7, 28 µM (inactive). In addition, the GI50 in the assay with MDA-MB-231 is 31.6 µM (inactive); in the assay with NCI-H522 it was 78.3 µM (inactive); with NCI/ADR-RES it was 33.3 µM (inactive); in the assay on SF-539, 35 µM (inactive); in the assay on SK-MEL-28, > 100 µM (inactive); in the assay with SR, 12.9 µM (inactive). Further, the GI50 in the assay on SW-620 is 51.2 µM (inactive); in the assay with TK-10, 40.4 µM (inactive).

With `N#Cc1c(C#N)c(-c2ccccc2)n(Cc2ccccc2)c1N`, the GI50 with BT-549 was > 100 µM (inactive); in the assay with COLO 205, > 100 µM (inactive); in the assay with DU-145 it was > 100 µM (inactive); with HCT-15, more than 100 µM; in the assay on HOP-62, 51.1 µM (inactive); in the assay on MCF7 it was > 100 µM (inactive). Also, the GI50 is 26.9 µM (inactive) in the assay with MDA-MB-231; > 100 µM (inactive) in the assay on NCI-H522; > 100 µM (inactive) with NCI/ADR-RES; 26 µM (inactive) in the assay with SF-539; > 100 µM (inactive) in the assay with SR; > 100 µM (inactive) in the assay on SW-620. In the assay with TK-10, the GI50 is > 100 µM (inactive).

On to `COC(=O)C[C@H](COCc1ccccc1)NC(=O)C[C@H](COCc1ccccc1)NC(=O)C[C@H](COCc1ccccc1)NC(=O)OC(C)(C)C`, for which the GI50 in the assay with BT-549 was > 100 µM (inactive); in the assay with COLO 205, > 100 µM (inactive); in the assay with DU-145 it was 23.3 µM (inactive); with HCT-15 it was more than 100 µM; in the assay with HOP-62, 16.9 µM (inactive); in the assay with MCF7, 11.8 µM (inactive). In addition, the GI50 with MDA-MB-231 was 81.8 µM (inactive); with NCI-H522, 78 µM (inactive); in the assay on NCI/ADR-RES, > 100 µM (inactive); in the assay with SF-539 it was 95.3 µM (inactive); in the assay with SK-MEL-28 it was 73.1 µM (inactive); with SR, 35.3 µM (inactive). Also, in the assay with SW-620, the GI50 was > 100 µM (inactive).

As to `Nc1cc(CO)cc(Nc2nc3ccc(Cl)cc3c3[nH]c4ccccc4c23)c1`, the GI50 in the assay with BT-549 is 10.9 µM (inactive); in the assay with COLO 205, 2.29 µM (inactive); in the assay with DU-145 it was 3.65 µM (inactive); in the assay with HCT-15, 3.92 µM; in the assay with HOP-62, 7.19 µM (inactive); in the assay on MCF7, 0.67 µM (active). Besides, the GI50 in the assay with MDA-MB-231 was 2.55 µM (inactive); in the assay with NCI-H522, 2.79 µM (inactive); in the assay on NCI/ADR-RES it was 8.45 µM (inactive); in the assay on SF-539, 3.34 µM (inactive); in the assay on SR, 2.16 µM (inactive); in the assay with SW-620 it was 4.44 µM (inactive). The GI50 in the assay with TK-10 is 6.05 µM (inactive).
